Where a SMILES comes first, the peptide text is derived from it. The star is where a group is joined. X1 = O=C(O)c1ccc2c(c1)nc(OCCCCCCCCC(=O)*)c1ccncc12
Tests used:
[1] = molecular target: Mitogen-activated protein kinase 10 (Homo sapiens) (UniProt P53779); experiment: Inhibition of human JNK3 assessed as residual activity at 1 uM in presence of [33P]ATP by filter binding assay relative to control
[2] = molecular target: Serine/threonine-protein kinase 33 (Homo sapiens) (UniProt Q9BYT3); experiment: Inhibition of human STK33 assessed as residual activity at 1 uM in presence of [33P]ATP by filter binding assay relative to control
[3] = molecular target: Tyrosine-protein kinase Lck (Homo sapiens) (UniProt P06239); experiment: Inhibition of human Lck assessed as residual activity at 1 uM in presence of 33P-ATP by filter-binding assay relative to control
[4] = molecular target: Insulin receptor (Homo sapiens) (UniProt P06213); experiment: Inhibition of human IR assessed as residual activity at 1 uM in presence of [33P]ATP by filter binding assay relative to control
[5] = molecular target: Mitogen-activated protein kinase 13 (Homo sapiens) (UniProt O15264); experiment: Inhibition of human P38d MAPK assessed as residual activity at 1 uM in presence of [33P]ATP by filter binding assay relative to control
[6] = molecular target: Platelet-derived growth factor receptor alpha (Homo sapiens) (UniProt P16234); experiment: Inhibition of human PDGFRA assessed as residual activity at 1 uM in presence of [33P]ATP by filter binding assay relative to control
[7] = molecular target: MAP kinase-interacting serine/threonine-protein kinase 1 (Homo sapiens) (UniProt Q9BUB5); experiment: Inhibition of human MNK1 assessed as residual activity at 1 uM in presence of [33P]ATP by filter binding assay relative to control
[8] = molecular target: Protein kinase C zeta type (Homo sapiens) (UniProt Q05513); experiment: Inhibition of human PKCZ assessed as residual activity at 1 uM in presence of [33P]ATP by filter binding assay relative to control
[9] = molecular target: Serine/threonine-protein kinase Sgk1 (Homo sapiens) (UniProt O00141); experiment: Inhibition of human SGK1 assessed as residual activity at 1 uM in presence of [33P]ATP by filter binding assay relative to control
[10] = molecular target: Inhibitor of nuclear factor kappa-B kinase subunit beta (Homo sapiens) (UniProt O14920); experiment: Inhibition of human IKKb assessed as residual activity at 1 uM in presence of [33P]ATP by filter binding assay relative to control
[11] = molecular target: Serine/threonine-protein kinase ULK1 (Homo sapiens) (UniProt O75385); experiment: Inhibition of human ULK1 assessed as residual activity at 1 uM in presence of [33P]ATP by filter binding assay relative to control
[12] = molecular target: Dual specificity mitogen-activated protein kinase kinase 6 (Homo sapiens) (UniProt P52564); experiment: Inhibition of human MKK6 assessed as residual activity at 1 uM in presence of [33P]ATP by filter binding assay relative to control
[13] = molecular target: Serine/threonine-protein kinase PAK 6 (Homo sapiens) (UniProt Q9NQU5); experiment: Inhibition of human PAK6 assessed as residual activity at 1 uM in presence of [33P]ATP by filter binding assay relative to control
[14] = molecular target: Casein kinase I isoform gamma-2 (Homo sapiens) (UniProt P78368); experiment: Inhibition of human CK1gamma2 assessed as residual activity at 1 uM in presence of [33P]ATP by filter binding assay relative to control
[15] = molecular target: Mitogen-activated protein kinase 1 (Homo sapiens) (UniProt P28482); experiment: Inhibition of human ERK2 assessed as residual activity at 1 uM in presence of [33P]ATP by filter binding assay relative to control
[16] = molecular target: Insulin-like growth factor 1 receptor (Homo sapiens) (UniProt P08069); experiment: Inhibition of human IGF-1R assessed as residual activity at 1 uM in presence of [33P]ATP by filter binding assay relative to control
[17] = molecular target: Tau-tubulin kinase 2 (Homo sapiens) (UniProt Q6IQ55); experiment: Inhibition of human TTBK2 assessed as residual activity at 1 uM in presence of [33P]ATP by filter binding assay relative to control
[18] = molecular target: RAC-beta serine/threonine-protein kinase (Homo sapiens) (UniProt P31751); experiment: Inhibition of human PKBb assessed as residual activity at 1 uM in presence of [33P]ATP by filter binding assay relative to control
[19] = molecular target: Dual specificity mitogen-activated protein kinase kinase 2 (Homo sapiens) (UniProt P36507); experiment: Inhibition of human MKK2 assessed as residual activity at 1 uM in presence of [33P]ATP by filter binding assay relative to control
[20] = molecular target: Serine/threonine-protein kinase STK11 (Homo sapiens) (UniProt Q15831); experiment: Inhibition of human LKB1 assessed as residual activity at 1 uM in presence of [33P]ATP by filter binding assay relative to control
[21] = molecular target: Receptor tyrosine-protein kinase erbB-4 (Homo sapiens) (UniProt Q15303); experiment: Inhibition of human HER4 assessed as residual activity at 1 uM in presence of [33P]ATP by filter binding assay relative to control
[22] = molecular target: Serine/threonine-protein kinase D1 (Homo sapiens) (UniProt Q15139); experiment: Inhibition of human PKD1 assessed as residual activity at 1 uM in presence of [33P]ATP by filter binding assay relative to control
[23] = molecular target: Glycogen synthase kinase-3 beta (Homo sapiens) (UniProt P49841); experiment: Inhibition of human GSK3beta assessed as residual activity at 1 uM in presence of 33P-ATP by filter-binding assay relative to control
[24] = molecular target: Calcium/calmodulin-dependent protein kinase type 1 (Homo sapiens) (UniProt Q14012); experiment: Inhibition of human CAMK1 assessed as residual activity at 1 uM in presence of [33P]ATP by filter binding assay relative to control
[25] = molecular target: Mitogen-activated protein kinase kinase kinase 7 (Homo sapiens) (UniProt O43318); experiment: Inhibition of human TAK1 assessed as residual activity at 1 uM in presence of [33P]ATP by filter binding assay relative to control
[26] = molecular target: Serine/threonine-protein kinase ULK2 (Homo sapiens) (UniProt Q8IYT8); experiment: Inhibition of human ULK2 assessed as residual activity at 1 uM in presence of [33P]ATP by filter binding assay relative to control
[27] = molecular target: Eukaryotic translation initiation factor 2-alpha kinase 3 (Homo sapiens) (UniProt Q9NZJ5); experiment: Inhibition of human EIF2AK3 assessed as residual activity at 1 uM in presence of 33P-ATP by filter-binding assay relative to control
[28] = molecular target: Death-associated protein kinase 1 (Homo sapiens) (UniProt P53355); experiment: Inhibition of human DAPK1 assessed as residual activity at 1 uM in presence of 33P-ATP by filter-binding assay relative to control
[29] = molecular target: Serine/threonine-protein kinase Chk1 (Homo sapiens) (UniProt O14757); experiment: Inhibition of human CHK1 assessed as residual activity at 1 uM in presence of [33P]ATP by filter binding assay relative to control

Eukaryotic translation initiation factor 2-alpha kinase 3 (Homo sapiens), sequence (Q9NZJ5 whole entry): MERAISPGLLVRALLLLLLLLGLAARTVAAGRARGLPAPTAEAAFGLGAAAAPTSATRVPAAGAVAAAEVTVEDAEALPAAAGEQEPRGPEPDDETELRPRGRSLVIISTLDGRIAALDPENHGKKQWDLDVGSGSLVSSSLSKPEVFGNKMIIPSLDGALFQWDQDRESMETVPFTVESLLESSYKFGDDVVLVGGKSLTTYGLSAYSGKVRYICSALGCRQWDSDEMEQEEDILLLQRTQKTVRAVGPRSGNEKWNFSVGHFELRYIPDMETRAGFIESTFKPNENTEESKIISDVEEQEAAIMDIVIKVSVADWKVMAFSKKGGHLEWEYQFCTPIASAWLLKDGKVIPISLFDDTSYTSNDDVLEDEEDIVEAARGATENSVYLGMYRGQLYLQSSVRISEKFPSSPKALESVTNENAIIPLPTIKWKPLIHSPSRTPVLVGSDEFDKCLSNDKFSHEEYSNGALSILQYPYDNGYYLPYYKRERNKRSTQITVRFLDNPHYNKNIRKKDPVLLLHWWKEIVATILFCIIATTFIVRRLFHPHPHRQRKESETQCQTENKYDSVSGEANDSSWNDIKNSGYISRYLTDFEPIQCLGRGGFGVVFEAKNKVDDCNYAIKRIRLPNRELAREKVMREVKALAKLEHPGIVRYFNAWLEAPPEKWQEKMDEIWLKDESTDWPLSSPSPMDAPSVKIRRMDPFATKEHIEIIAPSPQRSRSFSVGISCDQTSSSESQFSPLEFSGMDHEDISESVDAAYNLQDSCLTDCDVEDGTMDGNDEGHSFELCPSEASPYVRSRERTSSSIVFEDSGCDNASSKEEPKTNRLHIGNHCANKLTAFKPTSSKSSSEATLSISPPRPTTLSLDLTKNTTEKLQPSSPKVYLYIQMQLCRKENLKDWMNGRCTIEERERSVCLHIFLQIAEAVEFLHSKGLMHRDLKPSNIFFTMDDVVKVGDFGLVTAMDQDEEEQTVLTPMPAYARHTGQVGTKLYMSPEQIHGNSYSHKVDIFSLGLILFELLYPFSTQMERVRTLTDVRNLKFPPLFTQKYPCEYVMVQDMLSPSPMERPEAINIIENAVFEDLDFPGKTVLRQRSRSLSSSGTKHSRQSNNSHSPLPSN
Mitogen-activated protein kinase 1 (Homo sapiens), sequence (P28482 whole entry): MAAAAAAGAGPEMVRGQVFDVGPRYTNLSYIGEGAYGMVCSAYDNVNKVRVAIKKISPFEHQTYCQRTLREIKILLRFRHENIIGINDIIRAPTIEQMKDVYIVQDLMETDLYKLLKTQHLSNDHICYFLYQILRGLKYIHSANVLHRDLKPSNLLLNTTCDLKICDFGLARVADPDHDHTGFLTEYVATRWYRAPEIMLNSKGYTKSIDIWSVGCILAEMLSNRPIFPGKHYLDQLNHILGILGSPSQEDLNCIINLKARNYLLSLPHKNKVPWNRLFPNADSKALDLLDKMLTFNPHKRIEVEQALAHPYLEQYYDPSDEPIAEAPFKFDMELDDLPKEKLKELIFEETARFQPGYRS
RAC-beta serine/threonine-protein kinase (Homo sapiens), sequence (P31751 whole entry): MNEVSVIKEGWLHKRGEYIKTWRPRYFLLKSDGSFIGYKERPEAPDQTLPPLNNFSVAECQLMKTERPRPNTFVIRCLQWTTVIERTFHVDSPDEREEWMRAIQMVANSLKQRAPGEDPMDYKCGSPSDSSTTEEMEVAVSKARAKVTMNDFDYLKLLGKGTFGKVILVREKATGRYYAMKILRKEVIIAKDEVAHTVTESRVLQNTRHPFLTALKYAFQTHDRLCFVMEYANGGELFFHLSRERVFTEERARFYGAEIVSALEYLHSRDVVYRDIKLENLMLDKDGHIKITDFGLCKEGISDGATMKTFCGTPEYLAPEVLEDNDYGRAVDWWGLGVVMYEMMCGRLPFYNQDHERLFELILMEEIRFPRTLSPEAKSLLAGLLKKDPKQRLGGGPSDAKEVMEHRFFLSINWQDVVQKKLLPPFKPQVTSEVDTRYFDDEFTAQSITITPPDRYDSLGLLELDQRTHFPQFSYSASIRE
Calcium/calmodulin-dependent protein kinase type 1 (Homo sapiens), sequence (Q14012 whole entry, looked up): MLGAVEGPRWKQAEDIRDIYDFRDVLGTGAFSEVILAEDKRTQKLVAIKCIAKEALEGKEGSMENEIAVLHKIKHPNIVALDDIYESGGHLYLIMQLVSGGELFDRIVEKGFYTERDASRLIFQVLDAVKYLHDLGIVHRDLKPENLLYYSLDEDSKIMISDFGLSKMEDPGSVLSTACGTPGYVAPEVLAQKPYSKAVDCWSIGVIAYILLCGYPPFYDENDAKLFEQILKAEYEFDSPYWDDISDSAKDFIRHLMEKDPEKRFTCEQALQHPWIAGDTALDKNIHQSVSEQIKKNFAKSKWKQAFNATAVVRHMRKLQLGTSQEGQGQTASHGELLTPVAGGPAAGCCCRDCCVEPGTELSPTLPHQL
Serine/threonine-protein kinase PAK 6 (Homo sapiens), sequence (Q9NQU5 whole entry, looked up, canonical isoform): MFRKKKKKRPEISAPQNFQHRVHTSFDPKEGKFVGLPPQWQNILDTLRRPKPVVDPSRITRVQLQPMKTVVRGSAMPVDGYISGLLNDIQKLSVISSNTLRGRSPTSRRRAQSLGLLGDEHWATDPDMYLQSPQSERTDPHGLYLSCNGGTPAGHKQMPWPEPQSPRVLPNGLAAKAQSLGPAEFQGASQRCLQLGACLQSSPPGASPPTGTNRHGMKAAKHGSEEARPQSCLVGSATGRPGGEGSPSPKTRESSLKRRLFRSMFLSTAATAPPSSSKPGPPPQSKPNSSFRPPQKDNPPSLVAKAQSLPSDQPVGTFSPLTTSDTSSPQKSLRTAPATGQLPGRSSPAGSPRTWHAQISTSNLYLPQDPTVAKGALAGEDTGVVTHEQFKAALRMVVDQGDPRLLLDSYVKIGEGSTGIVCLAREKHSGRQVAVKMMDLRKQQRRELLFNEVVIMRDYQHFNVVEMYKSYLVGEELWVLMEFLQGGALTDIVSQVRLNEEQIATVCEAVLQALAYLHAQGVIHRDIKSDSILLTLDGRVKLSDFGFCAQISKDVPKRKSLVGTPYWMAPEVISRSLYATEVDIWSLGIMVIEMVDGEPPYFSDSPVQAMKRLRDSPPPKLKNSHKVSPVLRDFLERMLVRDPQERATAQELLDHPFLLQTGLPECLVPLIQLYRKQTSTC
Serine/threonine-protein kinase D1 (Homo sapiens), sequence (Q15139 whole entry): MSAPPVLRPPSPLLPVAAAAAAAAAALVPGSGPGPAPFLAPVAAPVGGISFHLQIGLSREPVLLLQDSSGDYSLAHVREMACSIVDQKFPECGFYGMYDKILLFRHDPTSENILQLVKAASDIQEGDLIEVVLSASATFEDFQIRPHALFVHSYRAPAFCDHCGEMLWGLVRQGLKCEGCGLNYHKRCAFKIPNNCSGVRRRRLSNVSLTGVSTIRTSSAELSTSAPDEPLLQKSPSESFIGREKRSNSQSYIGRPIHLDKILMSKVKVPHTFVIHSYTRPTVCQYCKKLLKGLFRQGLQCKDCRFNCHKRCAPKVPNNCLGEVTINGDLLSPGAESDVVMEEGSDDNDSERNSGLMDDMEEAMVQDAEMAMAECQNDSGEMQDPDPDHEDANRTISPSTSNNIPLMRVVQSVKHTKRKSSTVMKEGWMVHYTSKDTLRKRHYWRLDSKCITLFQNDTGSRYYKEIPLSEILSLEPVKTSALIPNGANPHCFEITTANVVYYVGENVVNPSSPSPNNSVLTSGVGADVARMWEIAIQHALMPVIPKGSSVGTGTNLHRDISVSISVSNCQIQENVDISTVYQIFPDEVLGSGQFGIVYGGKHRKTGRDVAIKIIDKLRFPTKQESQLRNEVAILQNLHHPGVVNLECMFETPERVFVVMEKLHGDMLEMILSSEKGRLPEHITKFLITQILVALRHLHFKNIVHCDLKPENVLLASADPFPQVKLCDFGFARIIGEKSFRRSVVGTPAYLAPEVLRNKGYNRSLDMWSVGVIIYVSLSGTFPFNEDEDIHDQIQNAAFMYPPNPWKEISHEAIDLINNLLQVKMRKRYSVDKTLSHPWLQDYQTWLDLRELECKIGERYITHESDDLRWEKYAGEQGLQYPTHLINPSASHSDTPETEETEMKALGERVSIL
Mitogen-activated protein kinase kinase kinase 7 (Homo sapiens), sequence (O43318 whole entry): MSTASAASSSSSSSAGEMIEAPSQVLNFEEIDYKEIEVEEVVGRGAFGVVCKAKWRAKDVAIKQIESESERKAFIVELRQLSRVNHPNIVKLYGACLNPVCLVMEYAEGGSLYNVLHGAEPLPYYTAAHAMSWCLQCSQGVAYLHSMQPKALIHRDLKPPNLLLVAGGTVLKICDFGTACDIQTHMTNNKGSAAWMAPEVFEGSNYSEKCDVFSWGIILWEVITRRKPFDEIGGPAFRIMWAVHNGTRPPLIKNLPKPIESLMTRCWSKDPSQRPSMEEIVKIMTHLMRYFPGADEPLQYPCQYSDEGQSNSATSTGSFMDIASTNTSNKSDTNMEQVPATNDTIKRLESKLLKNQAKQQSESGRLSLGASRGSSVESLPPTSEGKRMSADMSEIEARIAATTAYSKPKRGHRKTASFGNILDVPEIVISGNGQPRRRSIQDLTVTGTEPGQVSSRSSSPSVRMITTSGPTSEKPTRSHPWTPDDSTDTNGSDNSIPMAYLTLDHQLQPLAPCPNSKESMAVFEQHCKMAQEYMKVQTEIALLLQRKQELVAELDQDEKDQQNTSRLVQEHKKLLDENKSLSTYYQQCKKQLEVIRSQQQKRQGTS
Dual specificity mitogen-activated protein kinase kinase 6 (Homo sapiens), sequence (P52564 whole entry): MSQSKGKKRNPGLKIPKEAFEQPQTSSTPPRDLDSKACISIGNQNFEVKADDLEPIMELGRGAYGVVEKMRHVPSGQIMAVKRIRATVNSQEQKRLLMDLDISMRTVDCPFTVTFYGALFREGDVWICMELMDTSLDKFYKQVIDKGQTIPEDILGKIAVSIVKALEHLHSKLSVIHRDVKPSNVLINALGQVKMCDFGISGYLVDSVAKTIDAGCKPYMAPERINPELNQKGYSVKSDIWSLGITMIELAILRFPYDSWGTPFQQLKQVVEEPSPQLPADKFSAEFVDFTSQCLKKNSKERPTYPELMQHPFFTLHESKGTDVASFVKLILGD

Activity [1]: 94%
Activity [2]: 83%
Activity [3]: 39%
Activity [4]: 85%
Activity [5]: 109%
Activity [6]: 102%
Activity [7]: 67%
Activity [8]: 95%
Activity [9]: 84%
Activity [10]: 81%
Activity [11]: 90%
Activity [12]: 74%
Activity [13]: 110%
Activity [14]: 86%
Activity [15]: 90%
Activity [16]: 79%
Activity [17]: 101%
Activity [18]: 100%
Activity [19]: 88%
Activity [20]: 83%
Activity [21]: 90%
Activity [22]: 79%
Activity [23]: 26%
Activity [24]: 89%
Activity [25]: 80%
Activity [26]: 93%
Activity [27]: 47%
Activity [29]: 91%
SMILES: NCCCC[C@H](NC(=O)[C@H](CC(=O)O)NC(=O)[C@H](CC(=O)O)NC(=O)[C@H](CC(=O)O)NC(=O)[C@H](CC(=O)O)NC(=O)[C@H](CC(=O)O)NC(=O)[C@H](CC(=O)O)NC(=O)CCCCCCCCOc1nc2cc(C(=O)O)ccc2c2cnccc12)C(=O)O (X1-DDDDDDK-OH)
Activity [28]: 50%
